{"source": "patent US20130060543A1", "about": "“SYSTEMS AND METHODS FOR REVERSE ENGINEERING MODELS OF BIOLOGICAL NETWORKS” (TRUSTEES OF BOSTON UNIVERSITY, priority 2002, published 2013)", "test_system": "SOS test network genes", "experiment": "RNA expression changes of SOS test network genes after MMC perturbation (real-time qPCR)", "type": "cell-based, E. coli", "data": [{"smiles": "CO[C@@]12[C@H](COC(N)=O)C3=C(C(=O)C(C)=C(N)C3=O)N1C[C@@H]1N[C@@H]12", "note": "[MMC, Mitomycin C]", "values": [{"measurement": "Transcriptional response of all genes in the test network", "setting": "0.75 μg/ml MMC vs 0.5 μg/ml MMC baseline", "value": "statistically significant upregulation"}, {"measurement": "Relative RNA expression change xi=[RNAi]pert/[RNAi]cont−1, dinI", "setting": "0.75 μg/ml MMC vs control cells at 0.5 μg/ml MMC, gene dinI", "value": 0.334}, {"measurement": "Relative RNA expression change xi=[RNAi]pert/[RNAi]cont−1, lexA", "setting": "0.75 μg/ml MMC vs control cells at 0.5 μg/ml MMC, gene lexA", "value": 0.321}, {"measurement": "Relative RNA expression change xi=[RNAi]pert/[RNAi]cont−1, recA", "setting": "0.75 μg/ml MMC vs control cells at 0.5 μg/ml MMC, gene recA", "value": 0.496}, {"measurement": "Relative RNA expression change xi=[RNAi]pert/[RNAi]cont−1, recF", "setting": "0.75 μg/ml MMC vs control cells at 0.5 μg/ml MMC, gene recF", "value": 0.523}, {"measurement": "Relative RNA expression change xi=[RNAi]pert/[RNAi]cont−1, rpoD", "setting": "0.75 μg/ml MMC vs control cells at 0.5 μg/ml MMC, gene rpoD", "value": 0.327}, {"measurement": "Relative RNA expression change xi=[RNAi]pert/[RNAi]cont−1, rpoH", "setting": "0.75 μg/ml MMC vs control cells at 0.5 μg/ml MMC, gene rpoH", "value": 0.786}, {"measurement": "Relative RNA expression change xi=[RNAi]pert/[RNAi]cont−1, rpoS", "setting": "0.75 μg/ml MMC vs control cells at 0.5 μg/ml MMC, gene rpoS", "value": 0.672}, {"measurement": "Relative RNA expression change xi=[RNAi]pert/[RNAi]cont−1, ssb", "setting": "0.75 μg/ml MMC vs control cells at 0.5 μg/ml MMC, gene ssb", "value": 0.251}, {"measurement": "Relative RNA expression change xi=[RNAi]pert/[RNAi]cont−1, umuDC", "setting": "0.75 μg/ml MMC vs control cells at 0.5 μg/ml MMC, gene umuDC", "value": 0.834}]}]}
